Data reported in ChEMBL document CHEMBL4422691, “Identification of C-6 as a New Site for Linker Conjugation to the Taccalonolide Microtubule Stabilizers” (J Nat Prod, 2019).
Activity calls are given as the source filed them. No cut-off for these calls is given here.

Columns and labels:
Tubulin (Homo sapiens) [1] = target: T1, Tubulin (Homo sapiens) (UniProt P68371+Q9H4B7+P0DPH7+P68366+Q13509+Q71U36+P04350+Q3ZCM7+P07437+P68363+Q9BQE3+Q6PEY2+Q13885+Q9BVA1+Q9BUF5); assay: Induction of microtubule stabilization in human HCC1937 cells at 5 uM after 6 hrs by live cell fluorescence imaging; format: cell-based
Tubulin (Homo sapiens) [2] = target: T1, Tubulin (Homo sapiens); assay: Induction of microtubule stabilization in human HCC1937 cells assessed as co-localization of compound with microtubule at 5 uM after 24 hrs by fluorescence assay; format: cell-based
Tubulin (Sus scrofa) [3] = target: T2, Tubulin (Sus scrofa) (UniProt P02554+P02550); assay: Induction of porcine tubulin polymerization at 5 to 10 uM measured at 1 min interval for 1 hr; format: protein assay
T2 sequence (P02550 whole entry, looked up): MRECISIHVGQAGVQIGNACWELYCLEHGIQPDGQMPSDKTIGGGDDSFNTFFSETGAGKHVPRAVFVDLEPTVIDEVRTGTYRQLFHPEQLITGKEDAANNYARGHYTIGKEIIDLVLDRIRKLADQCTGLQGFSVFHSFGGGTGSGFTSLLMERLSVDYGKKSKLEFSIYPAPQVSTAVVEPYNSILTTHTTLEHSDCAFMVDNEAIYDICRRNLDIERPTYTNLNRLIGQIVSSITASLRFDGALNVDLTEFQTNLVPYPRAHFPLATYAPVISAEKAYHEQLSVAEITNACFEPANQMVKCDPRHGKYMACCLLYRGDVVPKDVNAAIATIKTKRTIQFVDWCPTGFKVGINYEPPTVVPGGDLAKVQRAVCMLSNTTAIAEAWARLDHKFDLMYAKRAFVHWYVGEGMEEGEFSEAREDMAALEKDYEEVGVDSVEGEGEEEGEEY
T2 sequence (P02554 whole entry, looked up): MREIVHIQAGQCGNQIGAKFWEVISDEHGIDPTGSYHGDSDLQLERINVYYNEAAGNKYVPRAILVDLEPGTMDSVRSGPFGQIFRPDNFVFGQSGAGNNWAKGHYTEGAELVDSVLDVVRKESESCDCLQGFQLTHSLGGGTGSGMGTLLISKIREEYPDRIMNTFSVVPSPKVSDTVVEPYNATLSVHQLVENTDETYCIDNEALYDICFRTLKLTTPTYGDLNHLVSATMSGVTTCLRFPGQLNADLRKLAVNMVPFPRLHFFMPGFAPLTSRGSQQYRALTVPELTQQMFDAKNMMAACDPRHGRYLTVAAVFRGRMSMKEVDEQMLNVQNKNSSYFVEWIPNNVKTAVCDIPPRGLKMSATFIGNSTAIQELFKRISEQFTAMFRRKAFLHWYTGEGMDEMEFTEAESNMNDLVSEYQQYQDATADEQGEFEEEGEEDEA

Tubulin (Homo sapiens) [4] = target: T1, Tubulin (Homo sapiens); assay: Induction of microtubule stabilization in human HCC1937 cells assessed as bundling of microtubules at 5 uM after 24 hrs by immunofluorescence assay; format: cell-based
[5] = Stability of the compound in aqueous solution after 24 hrs; format: physicochemical; details: buffer
HeLa = assay: Antiproliferative activity against human HeLa cells after 48 hrs by sulforhodamine B assay; format: functional, cell-based
Tubulin (Sus scrofa) [6] = target: T2, Tubulin (Sus scrofa); assay: Induction of porcine tubulin polymerization measured at 1 min interval for 1 hr; format: protein assay

Which Activity (Tubulin (Homo sapiens) [1]) does the source give for CC(=O)O[C@H]1[C@H]2[C@@H]([C@@H](O)[C@@H](OC(=O)CCCCn3cc(COc4ccc5c(c4)Oc4cc(O)ccc4C54OC(=O)c5ccccc54)nn3)[C@H]3C[C@@H]4O[C@@H]4[C@H](OC(C)=O)[C@]23C)[C@@H]2[C@@H](O)[C@@H]3[C@H]([C@H](C)[C@H]4O[C@]45OC(=O)[C@@](C)(O)[C@]35C)[C@@]2(C)[C@H]1OC(C)=O (some centres not stated) here?
The Activity was “Active”.

What about the Activity (Tubulin (Homo sapiens) [2]) of the same molecule?
The Activity was “Active”.

And the Activity (Tubulin (Sus scrofa) [3])?
The Activity was “Active”.

What about the Activity (Tubulin (Homo sapiens) [4]) of the same molecule?
Its Activity is “Active”.

What about the Stability [5] of the same molecule?
Its Stability is “Stable”.

What about the IC50 (HeLa) of the same molecule?
Its IC50 is 2.5 µM.

Which Activity (Tubulin (Sus scrofa) [6]) does the source give for CC(=O)O[C@H]1[C@H]2[C@H]([C@@H]3[C@@H](O)[C@@H]4[C@H]([C@H](C)[C@@H]5O[C@@]56OC(=O)[C@@](C)(O)[C@]46C)[C@@]3(C)[C@H]1OC(C)=O)[C@@H](O)C(=O)[C@H]1C[C@@H]3O[C@@H]3[C@H](OC(C)=O)[C@]21C here?
The Activity was “Dose-dependent effect”.
